From PMC11280343, “Rubus urticifolius Compounds with Antioxidant Activity, and Inhibition Potential against Tyrosinase, Melanin, Hyaluronidase, Elastase, and Collagenase” (Pharmaceuticals, 2024)
Several values for one entry are separate records, joined by “and”; a condition that tells them apart may be missing. Equal entries are not always repeated. Where two headings read alike, the source gives them in different places. Numbered stars: 1 amine (or outer) side, 2 acyl side, 3 side chain; on linkers, the order of the positions; unused ones are H or OH. Bridge positions count the residues as written; N and C are the ends. Square brackets hold non-standard residues; d marks the D form. Peptide text beside a SMILES is read from it. I, II: the chains in the order shown. Actinocin(9to1) = Cc1c2oc3c(C)ccc(C(=O)[*:1])c3nc-2c(C(=O)[*:2])c(N)c1=O; NMeV = CN[C@H](C(=O)O)C(C)C; Sar = CNCC(=O)O

Assays:
[1] = system: melanin production in HMCB cells; experiment: Melanin content assay; format: cell-based; settings: Homo sapiens; HMCB cells, 12 h; read-out: Inhibitory activity of melanin production IC50
Experimental: (§1) To determine the anti-melanogenic activity of the samples (at the same concentration as in the viability assay), melanin inhibition assay was used, following the protocol carried out by Apaza Ticona et al.. HMCB cells were cultured in 96-well plates (1 × 10^6 cells/well). […] Absorbance was measured at 405 nm using a microplate reader.

Nrf2 [2] = experiment: Nrf2 activation assay, HEK001; format: cell-based; settings: Homo sapiens, HEK001, 72 h; read-out: Activation of Nrf2 production EC50
Experimental: as §1, with “antioxidant response” for “anti-melanogenic activity”, “Nrf2 activation” for “melanin inhibition”, “Cells” for “HMCB cells”, “540” for “405”

Nrf2 [3] = experiment: Nrf2 activation assay, WS1; format: cell-based; settings: Homo sapiens; WS1, 72 h; read-out: Activation of Nrf2 production EC50
Experimental: as §1, with “antioxidant response” for “anti-melanogenic activity”, “Nrf2 activation” for “melanin inhibition”, “Cells” for “HMCB cells”, “540” for “405”

Nrf2 [4] = experiment: Nrf2 activation assay, HMCB; format: cell-based; settings: Homo sapiens, 72 h, read-out: Activation of Nrf2 production EC50
Experimental: as §1, with “antioxidant response” for “anti-melanogenic activity”, “Nrf2 activation” for “melanin inhibition”, “Cells” for “HMCB cells”, “540” for “405”

Nrf2 [5] = experiment: Nrf2 activation assay, positive control value of the method (cell line not stated); format: cell-based; settings: Homo sapiens
Experimental: as §1, with “antioxidant response” for “anti-melanogenic activity”, “Nrf2 activation” for “melanin inhibition”, “Cells” for “HMCB cells”, “540” for “405”

Nrf2 [6] = experiment: Nrf2 activation assay, THP-1; format: cell-based; settings: Homo sapiens, THP-1, 72 h; read-out: Activation of Nrf2 production EC50
Experimental: as §1, with “antioxidant response” for “anti-melanogenic activity”, “Nrf2 activation” for “melanin inhibition”, “Cells” for “HMCB cells”, “540” for “405”

hyaluronidase = target: T1, hyaluronidase (Bos taurus, UniProt Q2YDK3); settings: cited from earlier work; for Inhibition of active hyaluronidase: 2 mM
T1 sequence (Q2YDK3 36-553): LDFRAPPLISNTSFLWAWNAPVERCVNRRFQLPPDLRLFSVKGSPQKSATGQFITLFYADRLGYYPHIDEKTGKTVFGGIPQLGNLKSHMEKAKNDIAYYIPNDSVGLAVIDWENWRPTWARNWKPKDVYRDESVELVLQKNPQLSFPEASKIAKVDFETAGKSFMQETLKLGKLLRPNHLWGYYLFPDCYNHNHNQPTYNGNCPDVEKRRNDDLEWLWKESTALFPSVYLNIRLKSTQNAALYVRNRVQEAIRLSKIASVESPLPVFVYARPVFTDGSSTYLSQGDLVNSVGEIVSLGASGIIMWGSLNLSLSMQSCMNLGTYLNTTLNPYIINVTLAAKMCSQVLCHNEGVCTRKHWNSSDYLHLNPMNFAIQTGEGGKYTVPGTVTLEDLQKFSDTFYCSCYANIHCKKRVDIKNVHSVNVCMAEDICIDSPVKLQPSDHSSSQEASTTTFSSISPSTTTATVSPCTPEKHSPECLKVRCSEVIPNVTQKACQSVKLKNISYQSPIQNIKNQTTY

NR viability assay, HMCB = format: cell-based, Homo sapiens; settings: human; HMCB, NR assay, 72 h; read-out: Viability CC50
Experimental: (§2) The HEK001 (Homo sapiens cutaneous keratinocyte, CCL-2404), WS1 (Homo sapiens cutaneous fibroblast, CRL-1502), HMCB (Homo sapiens cutaneous melanoma, CRL-9607), and THP-1 (Homo sapiens peripheral blood monocyte, TIB-202) cell lines used in this study were obtained from the American Type Culture Collection (ATCC, Manassas, VA, USA). Cultivated in a Roswell Park Memorial Institute (RPMI) 1640 medium (RPMI 1640 Merck, Cat. No. R7755, New York, NY, USA) supplemented with 2 mM L-glutamine (≥99% Merck, Cat. No. 56-85-9), 10% fetal bovine serum (FBS Merck, Cat. No. TMS-016, St. Louis, MO, USA), and 10,000 units of penicillin and 10 mg streptomycin/mL (Merck, Cat. No. P4333, St. Louis, MO, USA) in culture flasks, the cells were maintained in an incubator under normoxic conditions (20–21% O2) and a humidified atmosphere (5% CO2 at 37 °C).
(§3) Mother solutions of samples (extracts, fractions, and compounds) were prepared at a concentration of […] using dimethyl sulfoxide (DMSO ≥ 99.9% Merck, Cat. No. 67-68-5, St. Louis, MO, USA) as the solvent. From these mother solutions, dilutions were prepared at concentrations ranging from 100 to 0.20 μg/mL or μM in culture medium containing 0.5% DMSO. Additionally, a negative control group consisting solely of culture medium with 0.5% DMSO was included to assess its potential cytotoxic effect on the cells.
(§4) Cell viability was evaluated using a colorimetric assay in 96-well plates, employing 3-amino-7-dimethylamino-2-methylphenazine hydrochloride salt reagent (NR, Merck, Cat. No. 553-24-2, St. Louis, MO, USA).
(§5) HEK001, WS1, HMCB, and THP-1 cell lines were cultured in 96-well plates at 37 °C with 5% CO2 until > 90% confluency was achieved (1 × 10^6 cells/well). Subsequently, the cultures were treated with sample dilutions (100–0.20 μg/mL or μM) for 72 h at 37 °C with 5% CO2 in phenol red-free RPMI. The supernatant was then discarded and the cells were washed with phosphate-buffered saline (PBS) before being incubated with […] NR (50 μg/mL; 173 μM) for 3 h at 37 °C with 5% CO2. NR labelling was performed after DMSO treatment. After incubation, the labelled sample dilutions were rapidly washed with a fixative solution composed of 1% calcium chloride (CaCl2 Merck, Cat. No. 10043-52-4, St. Louis, MO, USA) and 0.5% formaldehyde solution (≥36.0% in H2O Merck, Cat. No. 50-00-0, St. Louis, MO, USA), then diluted with 100 μL of the NR extraction solution. Finally, the plates were read at 540 nm using a microplate reader (Anthos 2020, version 2.0.5, Biochrom Ltd., Cambridge, UK).

NR viability assay, WS1 = format: cell-based, Homo sapiens; settings: human; WS1, NR assay, 72 h; read-out: Viability CC50
Experimental: as §2, §3, §4, §5

[7] = NR viability assay, HEK001; format: cell-based, Homo sapiens; settings: human; HEK001, NR assay, 72 h; read-out: Viability CC50
Experimental: as §2, §3, §4, §5

[8] = NR viability assay, THP-1; format: cell-based, Homo sapiens; settings: human, THP-1, NR assay, 72 h; read-out: Viability CC50
Experimental: as §2, §3, §4, §5

[9] = system: HEK001, WS1, HMCB, and THP-1 cell lines; experiment: Viability assay, positive control value of the method (cell line not stated); format: cell-based; settings: Homo sapiens
Experimental: as §4, §5

NF-κB [10] = experiment: NF-κB inhibition assay (LPS-stimulated), THP-1; format: cell-based; settings: Homo sapiens, THP-1, 72 h, read-out: NF-κB Inhibition at 72 h IC50 ± SEM
Experimental: as §1, with “anti-inflammatory” for “anti-melanogenic”, “NF-κB” for “melanin”, “Cells” for “HMCB cells”, “450” for “405”

NF-κB [11] = experiment: NF-κB inhibition assay (LPS-stimulated), HMCB; format: cell-based; settings: Homo sapiens, 72 h, read-out: NF-κB Inhibition at 72 h IC50 ± SEM
Experimental: as §1, with “anti-inflammatory” for “anti-melanogenic”, “NF-κB” for “melanin”, “Cells” for “HMCB cells”, “450” for “405”

NF-κB [12] = experiment: NF-κB inhibition assay (LPS-stimulated), HEK001; format: cell-based; settings: Homo sapiens, HEK001, 72 h, read-out: NF-κB Inhibition at 72 h IC50 ± SEM
Experimental: as §1, with “anti-inflammatory” for “anti-melanogenic”, “NF-κB” for “melanin”, “Cells” for “HMCB cells”, “450” for “405”

NF-κB [13] = experiment: NF-κB inhibition assay (LPS-stimulated), WS1; format: cell-based; settings: Homo sapiens, 72 h, read-out: NF-κB Inhibition at 72 h IC50 ± SEM
Experimental: as §1, with “anti-inflammatory” for “anti-melanogenic”, “NF-κB” for “melanin”, “Cells” for “HMCB cells”, “450” for “405”

NF-κB [14] = experiment: NF-κB inhibition assay, positive control value of the method (cell line not stated); format: cell-based; settings: Homo sapiens
Experimental: as §1, with “anti-inflammatory” for “anti-melanogenic”, “NF-κB” for “melanin”, “Cells” for “HMCB cells”, “450” for “405”

[15] = target: T2, elastase from porcine pancreas (Sus scrofa, UniProt P00772); experiment: Elastase-inhibitory effect assay; format: biochemical
T2 construct: elastase from porcine pancreas (7.5 units/mL); from tissue; host or cells: porcine pancreas
Experimental: The elastase-inhibitory effect was evaluated, implementing the protocol adapted from Tu and Tawata.
A mixture containing N-succinyl-Ala-Ala-Ala-p-nitroanilide (AAAPVN, Merck, Cat. No. 52299-14-6, St. Louis, MO, USA) elastase substrate in 0.1232 M Tris-HCl buffer solution (pH 8) was prepared to achieve a concentration of 1.015 mM. This elastase substrate was combined with 10 μL of the test samples at the same concentrations used as in the viability assay in 96-well plates and pre-incubated at room temperature (25 ± 5 °C) for 10 min. Subsequently, the reaction was initiated by adding 10 μL of elastase from porcine pancreas (7.5 units/mL) in Tris buffer solution to the pre-incubated mixtures. Absorbance was then measured at 410 nm using a microplate reader.

collagenase = experiment: Collagenase inhibitory assay; format: biochemical
Experimental: A fixed weight of 1 mg of azo dye-impregnated collagen was measured in the test tubes. Subsequently, 800 μL of 0.1 M Tris-HCl (pH 7) and 100 μL of the samples at the same concentrations used as in the viability assay were added to each test tube. Next, 100 μL of collagenase (200 units/mL) was immediately mixed into the mixture and the tubes were incubated at 43 °C for 1 h. After incubation, the test tubes were centrifuged at 3000 rpm for 10 min. The supernatant from each tube was transferred into 96-well plates and the absorbance of each supernatant was measured at 550 nm using a microplate reader.

[16] = equivalent value for the compounds
[17] = value for the extracts and fractions
[18] = inhibition percentage 'at an IC50', concentration not otherwise stated

T2 sequence (P00772 27-266): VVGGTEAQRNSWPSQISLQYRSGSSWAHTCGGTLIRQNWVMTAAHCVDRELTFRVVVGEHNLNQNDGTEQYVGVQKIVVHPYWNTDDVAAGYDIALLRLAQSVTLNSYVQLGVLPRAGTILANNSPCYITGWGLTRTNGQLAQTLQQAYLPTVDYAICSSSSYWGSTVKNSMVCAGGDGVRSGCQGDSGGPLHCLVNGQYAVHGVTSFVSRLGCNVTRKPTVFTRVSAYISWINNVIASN

## O=c1cc(CO)occ1O [Kojic acid, reference compound]
[1]
  IC50: 16.4 µM

## COC(=O)[C@]12CCC(C)(C)C[C@H]1[C@H]1C(=O)C=C3[C@@]4(C)C=C(C#N)C(=O)C(C)(C)[C@@H]4CC[C@@]3(C)[C@]1(C)CC2 [CDDO-Me, 2-Cyano-3,12-dioxo-oleana-1,9(11)-dien-28-oic acid methyl ester, reference compound]
Nrf2 [2]
  EC50: 5e-05 µg/mL and 0.08 nM
Nrf2 [3]
  EC50: 6e-05 µg/mL and 0.09 nM
Nrf2 [4]
  EC50: 7e-05 µg/mL and 0.1 nM
Nrf2 [5]; [16]
  EC50: 0.00011 µM
Nrf2 [5]; [17]
  EC50: 0.07 ng/mL
Nrf2 [6]
  EC50: 8e-05 µg/mL and 0.13 nM

## COc1ccc(/C=C/C(=O)Nc2ccccc2C(=O)O)cc1OC [Tranilast]
hyaluronidase; activator added
  Inhibition of active hyaluronidase: 50%
hyaluronidase
  Inhibition of active hyaluronidase: 75%

## Cc1c2oc3c(C)ccc(C(=O)N[C@@H]4C(=O)N[C@H](C(C)C)C(=O)N5CCC[C@H]5C(=O)N(C)CC(=O)N(C)[C@@H](C(C)C)C(=O)O[C@@H]4C)c3nc-2c(C(=O)N[C@@H]2C(=O)N[C@H](C(C)C)C(=O)N3CCC[C@H]3C(=O)N(C)CC(=O)N(C)[C@@H](C(C)C)C(=O)O[C@@H]2C)c(N)c1=O [ACTD, Actinomycin D, reference compound] (I: T[dV]P[Sar][NMeV] / II: T[dV]P[Sar][NMeV]; ester I:1-I:C, II:1-II:C; linker I:N-II:N via Actinocin(9to1))
NR viability assay, HMCB
  CC50 at 72 h: 0.0161 µg/mL and 7 nM
NR viability assay, WS1
  CC50 at 72 h: 0.0173 µg/mL and 8 nM
[7]
  CC50 at 72 h: 0.0184 µg/mL and 9 nM
[8]
  CC50 at 72 h: 0.0192 µg/mL and 9 nM
[9]; [16]
  IC50: 0.008 µM
[9]; [17]
  IC50: 0.01 µg/mL

## O=C(O)/C=C/c1ccccc1 [trans-cinnamic acid]
hyaluronidase
  Hyaluronidase inhibition: more than 60%

## CC1=C(O)C(=O)C=C2C1=CC=C1[C@@]2(C)CC[C@@]2(C)[C@@H]3C[C@](C)(C(=O)O)CC[C@]3(C)CC[C@]12C [Celastrol, reference compound]
NF-κB [10]
  IC50: 7.62 µM and 3.35 µg/mL
NF-κB [11]
  IC50: 7.36 µM and 3.27 µg/mL
NF-κB [12]
  IC50: 7.57 µM and 3.33 µg/mL
NF-κB [13]
  IC50: 7.41 µM and 3.29 µg/mL
NF-κB [14]; [16]
  IC50: 7.41 µM
NF-κB [14]; [17]
  IC50: 3.34 µg/mL

## O=C(O[C@@H]1Cc2c(O)cc(O)cc2O[C@@H]1c1cc(O)c(O)c(O)c1)c1cc(O)c(O)c(O)c1 [EGCG, Epigallocatechin gallate, reference compound]
[15]; [18]
  Elastase Inhibition (%): 98.08 ± 1.74% and 94.44 ± 1.30%
[15]; marked (*)
  Anti-Elastase IC50: 114 µg/mL and 114.38 ± 3.07 µg/mL
[15]; read-out: Anti-Elastase IC50
  IC50: 250 µM
collagenase; [18]
  Collagenase Inhibition (%): 98.81 ± 1.42% and 95.29 ± 2.09%
collagenase; marked (*)
  Anti-Collagenase IC50: 114 µg/mL and 114.04 ± 3.07 µg/mL
collagenase; read-out: Anti-Collagenase IC50
  IC50: 250 µM and 251 µM
